According to patent publication US12435061B2 (priority 2020, dated 2025):
Where two headings read alike, the source gives them in different places. Blank lines part the entries; values can stand above or below the molecule they belong to.

Molecular target: hTRPV3 (Homo sapiens (Human), UniProt Q8NET8)
Assay: Whole-cell patch clamp, hTRPV3 Phase 1 / Phase 2 currents
Assay type: cell-based
Procedure, shortened: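 Whole-cell recordings on induced TRPV3 cells replated on coverslips, held at −40 mV with 400 ms ramps from −120 to +100 mV every 5 s; currents read at −80 and +80 mV. Ringer's external solution; current activated by heating to ≥28 °C or 20 μM 2-APB.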

[1] = Phase 1 current, inward, whole-cell patch clamp, read-out: hTRPV3 Patch P1 Inwd
[2] = Phase 1 current, read-out: hTRPV3 (nM) (Phase 1)
[3] = Phase 1 current, human TRPV3, read-out: hTRPV3 (nM) Phase 1
[4] = Phase 2 current, inward, whole-cell patch clamp, read-out: hTRPV3 Patch P2 Inwd
[5] = Phase 2 current, read-out: hTRPV3 (nM) (Phase 2)

Chain of hTRPV3 (Q8NET8 whole entry): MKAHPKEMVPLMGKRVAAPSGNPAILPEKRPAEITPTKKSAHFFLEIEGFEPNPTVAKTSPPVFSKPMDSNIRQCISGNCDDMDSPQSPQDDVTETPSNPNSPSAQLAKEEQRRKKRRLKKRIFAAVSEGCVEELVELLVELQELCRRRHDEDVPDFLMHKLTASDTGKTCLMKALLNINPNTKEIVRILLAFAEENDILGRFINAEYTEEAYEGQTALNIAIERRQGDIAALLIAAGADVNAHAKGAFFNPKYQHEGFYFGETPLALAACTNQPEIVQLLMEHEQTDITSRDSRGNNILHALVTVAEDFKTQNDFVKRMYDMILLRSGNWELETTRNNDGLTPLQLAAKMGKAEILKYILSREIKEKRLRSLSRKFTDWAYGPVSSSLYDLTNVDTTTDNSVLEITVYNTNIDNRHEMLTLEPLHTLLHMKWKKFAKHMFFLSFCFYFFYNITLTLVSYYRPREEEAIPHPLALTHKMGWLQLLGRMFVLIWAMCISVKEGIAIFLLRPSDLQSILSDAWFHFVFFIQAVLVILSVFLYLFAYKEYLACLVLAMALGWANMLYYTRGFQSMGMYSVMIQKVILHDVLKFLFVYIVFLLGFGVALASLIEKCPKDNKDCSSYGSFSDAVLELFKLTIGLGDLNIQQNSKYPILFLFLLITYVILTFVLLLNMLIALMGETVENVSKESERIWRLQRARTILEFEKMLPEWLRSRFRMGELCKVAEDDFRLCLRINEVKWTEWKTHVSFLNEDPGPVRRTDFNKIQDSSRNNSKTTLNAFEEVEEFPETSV

SMILES: NC(=O)c1ccc(-c2ccc(N3CC[C@H](Oc4ccc(C(F)(F)F)cn4)C3)c(CO)c2)cc1 [Compound 1-253, (S)-3′-(hydroxymethyl)-4′-(3-(5-(trifluoromethyl)pyridin-2-yloxy)pyrrolidin-1-yl)biphenyl-4-carboxamide]
IC50 [1]: > 1000 nM | IC50 [2]: > 3200 nM

SMILES: CCc1ccccc1Oc1ccc(C2CCN(C(=O)c3ccccn3)C2)c(C(N)=O)c1 (centres unmarked) [Compound 2-38, 5-(2-ethylphenoxy)-2-(1-picolinoylpyrrolidin-3-yl)benzamide]
IC50 [3]: 2820 nM | IC50 [1]: > 1000 nM

SMILES: CCc1ccccc1Oc1ccc(C2CC(=O)N(Cc3cccc(C)n3)C2)c(C(N)=O)c1 (centres unmarked) [Compound 2-98, 5-(2-ethylphenoxy)-2-(1-((6-methylpyridin-2-yl)methyl)-5-oxopyrrolidin-3-yl)benzamide]
IC50 [3]: > 3200 nM | IC50 [1]: > 1000 nM

SMILES: N#Cc1nc(-c2ccccc2)ccc1N1CC[C@@H](Oc2ccc(C(F)(F)F)cn2)C1 [Compound 1-97]
IC50 [4]: > 1000 nM | IC50 [5]: 2930 nM

SMILES: CCc1nccnc1-c1ccc(C2CCN(C(=O)c3ccc(F)cn3)C2)c(CO)c1 (centres unmarked) [Compound 2-68, (3-(4-(3-ethylpyrazin-2-yl)-2-(hydroxymethyl)phenyl)pyrrolidin-1-yl)(5-fluoropyridin-2-yl)methanone]
IC50 [3]: > 3200 nM | IC50 [1]: > 1000 nM

SMILES: CCCc1ccccc1Oc1ccc(N2CC[C@H](Oc3ncccc3Cl)C2)c(CO)c1 [Compound 1-266, (S)-(2-(3-(3-chloropyridin-2-yloxy)pyrrolidin-1-yl)-5-(2-propylphenoxy)phenyl)methanol]
IC50 [1]: < 10 nM | IC50 [2]: 2.65 nM

SMILES: OCc1nc(Oc2ccccc2)ccc1N1CC[C@H](Oc2ccc(C(F)(F)F)cn2)C1 [Compound 1-199, (S)-(6-phenoxy-3-(3-(5-(trifluoromethyl)pyridin-2-yloxy)pyrrolidin-1-yl)pyridin-2-yl)methanol]
IC50 (hTRPV3 Patch P1 Inwd (nM)): > 1000 nM | IC50 (hTRPV3 Patch P2 Inwd (nM)): > 1000 nM | IC50 (read-out: hTRPV3 (nM) (Phase 1)): > 3200 nM | IC50 (read-out: hTRPV3 (nM) (Phase 2)): > 3200 nM

SMILES: NC(=O)c1ccc(-c2ccccc2)cc1N1CC[C@H](Oc2ccc(C(F)(F)F)cn2)C1 [Compound 1-63, (S)-3-(3-(5-(trifluoromethyl)pyridin-2-yloxy)pyrrolidin-1-yl)biphenyl-4-carboxamide]
IC50 [1]: > 1000 nM | IC50 [4]: > 1000 nM

SMILES: CCc1ccccc1S(=O)(=O)c1ccc(N2CC[C@H](Oc3ncccc3Cl)C2)c(CCO)c1 [Compound 1-342]
IC50 [4]: > 1000 nM

SMILES: O=C(c1ncccn1)N1CCC(c2ccc(-c3ccccc3C3CC3)cc2CO)C1 (centres unmarked) [Compound 2-122]
IC50 [3]: 202 nM

SMILES: CCc1ccccc1C(=O)c1ccc(N2CC[C@H](Nc3ncccc3Cl)C2)c(CCO)c1 [Compound 1-387, (S)-(4-(3-(3-chloropyridin-2-ylamino)pyrrolidin-1-yl)-3-(2-hydroxyethyl)phenyl)(2-ethylphenyl)methanone]
IC50 [1]: > 1000 nM | IC50 [2]: 1630 nM

SMILES: NC(=O)c1cc(-c2ccccc2)ccc1N1CC[C@H](Nc2ccc(C(F)(F)F)cn2)C1 [Compound 1-372, (S)-4-(3-(5-(trifluoromethyl)pyridin-2-ylamino)pyrrolidin-1-yl)biphenyl-3-carboxamide]
IC50 [1]: > 1000 nM | IC50 [4]: > 1000 nM

SMILES: OCc1cc(Oc2ccccc2F)ccc1N1CC[C@H](Oc2ccccn2)C1 [Compound 1-333]
IC50 [1]: 100 to 1000 nM | IC50 [2]: 207 nM | IC50 [4]: 100 to 1000 nM | IC50 [5]: 111 nM

SMILES: FC(F)(F)c1ccc(O[C@H]2CCN(c3ccccc3OCc3ccccc3)C2)nc1 [Compound 1-26, (S)-2-(1-(2-(benzyloxy)phenyl)pyrrolidin-3-yloxy)-5-(trifluoromethyl)pyridine]
IC50 [1]: > 1000 nM

SMILES: COCc1ccccc1Oc1ccc(N2CC[C@H](Oc3ncccc3C)C2)c(CCO)c1 [Compound 1-350, (S)-2-(5-(2-(methoxymethyl)phenoxy)-2-(3-(3-methylpyridin-2-yloxy)pyrrolidin-1-yl)phenyl)ethanol]
IC50 [1]: 100 to 1000 nM | IC50 [2]: 311 nM

SMILES: COc1ccccc1-c1ccc(N2CC[C@H](Oc3ncccc3F)C2)c(CO)n1 [Compound 1-213, (S)-(3-(3-(3-fluoropyridin-2-yloxy)pyrrolidin-1-yl)-6-(2-methoxyphenyl)pyridin-2-yl)methanol]
IC50 [1]: > 1000 nM | IC50 [2]: 2790 nM

SMILES: Cc1ccccc1N1CCC(Nc2ncc(C(F)(F)F)cc2Cl)C1 (centres unmarked) [Compound 1-371, 3-chloro-N-(1-o-tolylpyrrolidin-3-yl)-5-(trifluoromethyl)pyridin-2-amine]
IC50 [1]: > 1000 nM | IC50 [4]: > 1000 nM

SMILES: CC(C)(C)OC(=O)c1ccccc1N1CC[C@H](Oc2ccc(C(F)(F)F)cn2)C1 [Compound 1-54, (S)-tert-butyl 2-(3-(5-(trifluoromethyl)pyridin-2-yloxy)pyrrolidin-1-yl)benzoate]
IC50 [1]: > 1000 nM

SMILES: OCc1csc(-c2cccc(N3CC[C@H](Oc4ccc(C(F)(F)F)cn4)C3)c2)n1 [Compound 1-177]
IC50 [1]: > 1000 nM

SMILES: CCc1ccccc1C(O)c1ccc(N2CC[C@H](Nc3ncccc3Cl)C2)c(CO)c1 (stereo partly drawn) [Compound 1-386, (4-((S)-3-(3-chloropyridin-2-ylamino)pyrrolidin-1-yl)-3-(hydroxymethyl)phenyl)(2-ethylphenyl)methanol]
IC50 [1]: > 1000 nM | IC50 [2]: ~1260 nM | IC50 [4]: > 1000 nM | IC50 [5]: ~2150 nM

SMILES: CC(C)c1ccccc1Oc1ccc(C2CC(=O)N(Cc3ncccc3Cl)C2)c(CO)c1 (centres unmarked) [Compound 2-88, 1-((3-chloropyridin-2-yl)methyl)-4-(2-(hydroxymethyl)-4-(2-isopropylphenoxy)phenyl)pyrrolidin-2-one]
IC50 [3]: 169 nM | IC50 [1]: 100 to 1000 nM | IC50 (Phase 2 current, human TRPV3, read-out: hTRPV3 (nM) Phase 2): 184 nM | IC50 [4]: 100 to 1000 nM

SMILES: N#Cc1ccccc1N1CC[C@@H](Oc2ccc(C(F)(F)F)cn2)C1 [Compound 1-9, (R)-2-(3-(5-(trifluoromethyl)pyridin-2-yloxy)pyrrolidin-1-yl)benzonitrile]
IC50 [1]: > 1000 nM

IC50 [2]: > 3200 nM | IC50 [5]: 481 nM
SMILES: Cc1cccnc1CO[C@H]1CCN(c2ccc(-c3ccccc3)cc2CO)C1 [Compound 1-399]

SMILES: Cc1ccc(O[C@H]2CCN(c3ccc(-c4ccccc4)nc3CCO)C2)nc1 [Compound 1-215]
IC50 [1]: > 1000 nM | IC50 [2]: 1000 nM

SMILES: O=C(O)c1ccccc1N1CC[C@@H](Oc2ccc(C(F)(F)F)cn2)C1 [Compound 1-41, (R)-2-(3-(5-(trifluoromethyl)pyridin-2-yloxy)pyrrolidin-1-yl)benzoic acid]
IC50 [1]: > 1000 nM | IC50 [4]: > 1000 nM

SMILES: Cc1cccc(C(=O)c2ccc(C3CCN(C(=O)c4ncccc4Cl)C3)c(CO)c2)c1 (single isomer, unassigned) [Compound 2-3]
IC50 [1]: 10 to 100 nM

SMILES: CC(C)c1ccccc1Oc1ccc(N2CC[C@H](Oc3ncccc3F)C2)c(CCO)c1 [Compound 1-331, (S)-2-(2-(3-(3-fluoropyridin-2-yloxy)pyrrolidin-1-yl)-5-(2-isopropylphenoxy)phenyl)ethanol]
IC50 [1]: 10 to 100 nM | IC50 [2]: 28 nM

SMILES: CC(C)c1ccccc1Oc1ccc(N2CC[C@H](Oc3ncccc3Cl)C2)c(CO)c1 [Compound 1-271, (S)-(2-(3-(3-chloropyridin-2-yloxy)pyrrolidin-1-yl)-5-(2-isopropylphenoxy)phenyl)methanol]
IC50 [1]: < 10 nM | IC50 [2]: 2.01 nM

SMILES: Cc1ccc(C(O)c2ccc(N3CC[C@H](Oc4ncccc4Cl)C3)c(CCO)c2)cc1 (stereo partly drawn) [Compound 1-310, 2-(2-((S)-3-(3-chloropyridin-2-yloxy)pyrrolidin-1-yl)-5-(hydroxy(p-tolyl)methyl)phenyl)ethanol]
IC50 [1]: > 1000 nM | IC50 [2]: 4200 nM

SMILES: CCc1ccccc1-c1ccc(N2CC[C@H](Oc3ccc(C(F)(F)F)cn3)C2)c(CO)c1 [Compound 1-149, (S)-(2′-ethyl-4-(3-(5-(trifluoromethyl)pyridin-2-yloxy)pyrrolidin-1-yl)biphenyl-3-yl)methanol]
IC50 [1]: 10 to 100 nM | IC50 [2]: 34.7 nM | IC50 [4]: < 10 nM | IC50 [5]: 10.7 nM

SMILES: Cc1ccc(O[C@H]2CCN(c3ccc(-c4ccccc4CN(C)C(=O)OC(C)(C)C)nc3CO)C2)nc1 [Compound 1-258, (S)-tert-butyl 2-(6-(hydroxymethyl)-5-(3-(5-methylpyridin-2-yloxy)pyrrolidin-1-yl)pyridin-2-yl)benzyl (methyl)carbamate]
IC50 [1]: 100 to 1000 nM | IC50 [2]: 276 nM

SMILES: CCOC(=O)c1nc(-c2ccccc2)sc1N1CC[C@H](Oc2ccc(C(F)(F)F)cn2)C1 [Compound 1-206, (S)-ethyl 2-phenyl-5-(3-(5-(trifluoromethyl)pyridin-2-yloxy)pyrrolidin-1-yl)thiazole-4-carboxylate]
IC50 [1]: > 1000 nM | IC50 [2]: 2670 nM

SMILES: Cc1cccnc1O[C@H]1CCN(c2ccc(-c3ccccc3Cl)cc2C(C)O)C1 (stereo partly drawn) [Compound 1-172, 1-(2′-chloro-4-((S)-3-(3-methylpyridin-2-yloxy)pyrrolidin-1-yl)biphenyl-3-yl)ethanol]
IC50 [1]: 100 to 1000 nM | IC50 [2]: 882 nM

SMILES: Cc1ccc(C(=O)c2ccc(N3CC[C@H](Oc4ncccc4Cl)C3)c(CCO)c2)cc1 [Compound 1-295, (S)-(4-(3-(3-chloropyridin-2-yloxy)pyrrolidin-1-yl)-3-(2-hydroxyethyl)phenyl)(p-tolyl)methanone]
IC50 [1]: 100 to 1000 nM | IC50 [2]: ~225 nM | IC50 [4]: 100 to 1000 nM | IC50 [5]: ~178 nM

SMILES: CCc1ccccc1-c1ccc(N2CC[C@H](Oc3ccc(Cl)cn3)C2)c(CO)n1 [Compound 1-201, (S)-(3-(3-(5-chloropyridin-2-yloxy)pyrrolidin-1-yl)-6-(2-ethylphenyl)pyridin-2-yl)methanol]
IC50 [1]: > 1000 nM | IC50 [2]: > 3200 nM

SMILES: COCc1ccccc1Oc1ccc(N2CC[C@H](Oc3ncccc3F)C2)c(CCO)c1 [Compound 1-351, (S)-2-(2-(3-(3-fluoropyridin-2-yloxy)pyrrolidin-1-yl)-5-(2-(methoxymethyl)phenoxy)phenyl)ethanol]
IC50 [1]: 100 to 1000 nM | IC50 [2]: 461 nM
